{"source": "patent US11607464B2", "about": "“Compositions and methods for the treatment and imaging of cancer” (BOARD OF REGENTS OF THE UNIVERSITY OF NEBRASKA, priority 2018, dated 2023)", "key": {"[1]": {"assay": "Stability in human serum (HPLC)", "format": "in vitro ADME", "method": "4 (370 KBq-740 kBq) in 20 μL 25% EtOH/PB (10 mM PB, pH 6.1) was added to the solution of human serum (1980 μL). The mixture was briefly vortexed and kept up to 19 hours at ambient temperature or in the cell culture incubator (37° C., 5% CO2). At selected times, a 0.5-mL aliquot of the incubated mixture was withdrawn and analyzed by HPLC.\nAn aliquot of the incubation mixture (0.5 mL) was treated with MeCN (0.5 mL) to precipitate proteins, vortexed and centrifuged (2,000 rpm, 15 minutes). Aliquots of the supernatant (500 μL) were acidified to pH˜6 with 0.05 M TFA (2-8 μL). The excess of MeCN was evaporated with a stream of nitrogen and 100 μL water added. This mixture was passed through a 0.2-μm filter and samples (˜100 μL, 62.5 kBq-130 kBq) were injected on HPLC system.\nThe HPLC analyses proceeded on Luna C N (5μ, 4.6×250 mm) column. Eluent: solvent A potassium phosphate buffer (10 mM, pH 6.1), solvent B EtOH; all samples were eluted at 0.8 mL/minute, initially with a gradient of EtOH from 30% to 70% for 30 minutes, then from 70% to 95% over the next 15 minutes with detection of radioactivity and UV at 280 nm."}, "[2]": {"test_system": "BE(2)-C", "assay": "Extracellular and intracellular D10 of cells exposed to ^131I-4", "format": "cell-based, human", "conditions": "exposed for 48 hours", "method": "(§1) The cell uptake was tested as a function of the radioactive concentration and time of exposure. With each treatment group, triplicate flasks of controls cells in medium without the radioactive drug were grown and harvested alongside treated cells. Aliquots of the radioactive medium were reserved for gamma counting to assess the initial radioactive concentration. Each treatment was tested in triplicate in at least two independent experiments. Groups of treated cells were cultured in radioactive medium for 1 hour, 24 hours, 48 hours, and 72 hours and either harvested at these times or the radioactive medium was removed and replaced with the appropriate nonradioactive medium and then flasks were returned to the incubator for additional 24 hours. Radioactive medium was collected for radioactivity determination, monolayers were washed with ice-cold PBS. Cells used in the subcellular distribution experiments were harvested by scarping and cell numbers were determined. The subcellular distribution of radioactivity was determined as described before using NE-PER™ nuclear and cytoplasmic extraction reagents (Pierce Biotechnology, Rockford, Ill.).\n(§2) The cell uptake of ^131I-4 was tested as a function of the radioactive concentration and time of exposure. Groups of treated cells—BE(2)-C (neuroblastoma), SK-N-SH cells (neuroblastoma), and U-87 MG (glioblastoma)—were cultured in radioactive medium for 1 hour, 24 hours, 48 hours, and 72 hours."}, "[3]": {"test_system": "SK-N-SH", "assay": "Extracellular and intracellular D10 of cells exposed to ^131I-4", "format": "cell-based, human", "conditions": "exposed for 48 hours", "method": "as §1, §2"}, "[4]": {"test_system": "U-87MG", "assay": "Extracellular and intracellular D10 of cells exposed to ^131I-4", "format": "cell-based, human", "conditions": "exposed for 48 hours", "method": "as §1, §2"}, "[5]": {"test_system": "U-87 MG xenograft", "assay": "U-87 MG xenograft therapy study in athymic mice", "format": "in vivo, athymic Ncr nu/nu mice", "method": "(§3) U-87MG cells were injected subcutaneously (SQ) in the dorsal area of the female and male 8-weeks old athymic Ncr nu/nu mice (n=10 per group). When tumor volume reached ˜150 mm^3 mice were randomized into treatment group and “sham” injected control group. The average tumor volumes on day 0 were 177±55 mm^3 and 141±25 mm^3 in the treatment group and untreated controls, respectively. Therapy mice received ^131I-4 at an average dose of 14.5±2.3 MBq/mouse. Tumor volumes and body weights were measured three times per week. When one tumor in control mice exceeded the volume of 3000 mm^3 (i.e., 10% of the body weight), the experiment was terminated. Necropsy was performed. Tumor weights and tumor-associated radioactivity were determined. Blood was collected and hemoglobin and hematocrit values were measured. Tumors sections were also analyzed by macroautoradiography.\nU-87MG cells were injected subcutaneously (SQ) in the dorsal area of the female and male 8-weeks old athymic Ncr nu/nu mice (n=10 per group). Therapy mice received ^131I-4 at an average dose of 14.5±2.3 MBq/mouse and tumor volumes and body weights were measured three times per week."}, "[6]": {"test_system": "BE(2)-C cells", "assay": "Colony-forming assay, radiotoxicity of ^131I-radiolabeled drug", "format": "cell-based, human", "conditions": "for surviving fraction: BE(2)-C", "method": "as §1\n(§4) Alongside all treatment groups, which included: drug alone (n=4), 4 Gy XRT alone (n=4), and drug+XRT (n=4), quadruplicate flasks of controls cells in medium containing DMSO were grown and harvested under identical culture conditions. Each treatment was tested in at least two independent experiments. The final concentration of DMSO was maintained at 0.5% in all flasks including controls. Cells grown in monolayers (50%-60% confluent) were irradiated at the dose of 4 Gy delivered at the dose rate of 1.36 Gy/minute in a Mark I 68A irradiator (J. L. Shepherd & Associates, San Fernando, Calif.). At designated times after treatment, cells were harvested, their numbers determined and plated at 200 and 500 live cells in duplicate or quadruplicate T25 flasks per each treatment. Cells were left undisturbed for ˜7 days after which time fresh medium was added and colonies were allowed to grow for up to 3 weeks. Colonies were washed with PBS, fixed with methanol, and stained with crystal violet. Briefly, colonies were washed with 5 mL ice-cold PBS, followed by 5 mL PBS/methanol (1:1; v/v), and fixed in 5 mL methanol for 10 minutes. Methanol was removed and flasks were left open to dry for a few hours. Crystal violet (3 mL; 0.25% in 1:1 PBS/methanol) was added to each flask to stain cells. After approximately 10 minutes, the dye was removed, flasks were rinsed with tap water followed by distilled water and were left to dry. Colonies were counted by two independent observers using the ImageJ software."}, "[7]": {"test_system": "SK-N-SH cells", "assay": "Colony-forming assay, radiotoxicity of ^131I-radiolabeled drug", "format": "cell-based, human", "conditions": "for surviving fraction: 0.35 MBq/mL", "method": "as §1, §4"}, "[8]": {"test_system": "SK-N-SH neuroblastoma, BE(2)-C neuroblastoma, and U-87 MG glioblastoma", "assay": "Survival of neuroblastoma and glioblastoma cells treated with ^131I-4", "format": "cell-based, human", "conditions": "0.185 MBq/mL and 0.35 MBq/mL, FIGS. 9A-9C", "method": "FIGS. 9A-9C provide images of SK-N-SH neuroblastoma (FIG. 9A), BE(2)-C neuroblastoma (FIG. 9B), and U-87 MG glioblastoma (FIG. 9C) untreated or treated with compound ^131I-4 at 0.185 MBq/mL and 0.35 MBq/mL. Graphs of the cell uptake and clonogenic survival of the cells are also provided.\nThe survival of human neuroblastoma and glioblastoma cells either left untreated or treated with compound ^131I-4 at 0.185 MBq/mL and 0.35 MBq/mL was determined. The cell uptake and clonogenic survival of SK-N-SH neuroblastoma, BE(2)-C neuroblastoma, and U-87 MG glioblastoma was also determined (FIGS. 9A-9C)."}, "[9]": {"assay": "Hematocrit and hemoglobin in treated mice", "format": "in vivo, athymic Ncr nu/nu mice", "conditions": "terminal necropsy after therapy", "method": "as §3\nThe average and median weights of tumor extirpated from untreated control mice (NT) and ^131I-4 treated mice at the terminal necropsy after the therapy was also determined (FIG. 10A). Hematocrit and hemoglobin values in ^131I-4-treated and control (NT) mice were also determined (FIGS. 10B and 10C). FIGS. 10D and 10E also show macroautoradiography of sections of two tumors extirpated."}, "[10]": {"test_system": "NCI 60 cancer cells", "assay": "NCI 60 cell five-dose screen", "format": "cell-based, human", "conditions": "NCI 60 cell five-dose screen, FIG. 5", "from_the_text": "FIG. 5 provides the concentrations (nanomole/liter) required to inhibit by 50% growth of cancer cells (GI50) as measured with the National Cancer Institute (NCI) 60 cell five-dose screen assay.\nThe methodology and data analyses are described in detail at: dtp.cancer.gov/discovery_development/nci-60/methodology."}}, "data": [{"smiles": "COC(=O)Nc1nc2cc(C(=O)c3cccc([131I])c3)ccc2[nH]1", "note": "[^125I-4, Methyl N-[5-(3′-[^125/131I]iodobenzoyl)-1H-benzimidazol-2-yl]carbamate]", "values": [{"measurement": "stability in human serum, radioactive HPLC trace", "setting": "[1]; 5 hours, 20° C.", "result": "exclusively non-degraded"}, {"measurement": "stability in human serum, radioactive HPLC trace", "setting": "[1]; 17 hours, 37° C.", "result": "exclusively non-degraded"}, {"measurement": "stability in human serum", "setting": "[1]; up to 19 hours", "result": "stable"}]}, {"smiles": "COC(=O)Nc1nc2cc(C(=O)c3cccc([131I])c3)ccc2[nH]1", "note": "[^131I-4, Methyl N-[5-(3′-[^125/131I]iodobenzoyl)-1H-benzimidazol-2-yl]carbamate]", "values": [{"measurement": "D10 extracellular", "setting": "[2]", "result": 0.176, "unit": "MBq/mL"}, {"measurement": "D10 intracellular", "setting": "[2]", "result": "3,010 (395) decays/cell"}, {"measurement": "D10 intracellular", "setting": "[2]; value (std err)", "result": "0.36 (0.05) cpm/cell"}, {"measurement": "D10 extracellular", "setting": "[3]", "result": 0.410, "unit": "MBq/mL"}, {"measurement": "D10 intracellular", "setting": "[3]", "result": "7,620 (530) decays/cell"}, {"measurement": "D10 intracellular", "setting": "[3]; value (std err)", "result": "0.82 (0.09) cpm/cell"}, {"measurement": "D10 extracellular", "setting": "[4]", "result": 0.740, "unit": "MBq/mL"}, {"measurement": "D10 intracellular", "setting": "[4]", "result": "14,760 (2,550) decays/cell"}, {"measurement": "D10 intracellular", "setting": "[4]; value (std err)", "result": "1.73 (0.34) cpm/cell"}, {"measurement": "tumor growth compared to untreated control mice", "setting": "[5]; 14.5±2.3 MBq/mouse", "result": "dramatically decreases tumor growth"}, {"measurement": "xenograft volume median", "setting": "[5]; day 0 after treatment", "result": 122, "unit": "mm^3"}, {"measurement": "xenograft volume avg (std err)", "setting": "[5]; day 0 after treatment, 14.5±2.3 MBq/mouse", "result": "177 (55) mm^3"}, {"measurement": "xenograft volume median", "setting": "[5]; day 4 after treatment", "result": 169, "unit": "mm^3"}, {"measurement": "xenograft volume avg (std err)", "setting": "[5]; day 4 after treatment, 14.5±2.3 MBq/mouse", "result": "251 (88) mm^3"}, {"measurement": "xenograft volume median", "setting": "[5]; day 7 after treatment", "result": 281, "unit": "mm^3"}, {"measurement": "xenograft volume avg (std err)", "setting": "[5]; day 7 after treatment, 14.5±2.3 MBq/mouse", "result": "277 (76) mm^3"}, {"measurement": "xenograft volume median", "setting": "[5]; day 9 after treatment", "result": 292, "unit": "mm^3"}, {"measurement": "xenograft volume avg (std err)", "setting": "[5]; day 9 after treatment, 14.5±2.3 MBq/mouse", "result": "456 (165) mm^3"}, {"measurement": "xenograft volume median", "setting": "[5]; day 11 after treatment", "result": 320, "unit": "mm^3"}, {"measurement": "xenograft volume avg (std err)", "setting": "[5]; day 11 after treatment, 14.5±2.3 MBq/mouse", "result": "444 (163) mm^3"}, {"measurement": "tumor infiltration (macroautoradiography)", "setting": "[5]; sections of extirpated tumors", "result": "infiltrates tumors"}, {"measurement": "surviving fraction", "setting": "[6]; 24 hour exposure to 0.35 MBq", "result": "0.51±0.067"}, {"measurement": "surviving fraction", "setting": "[6]; 48 hour exposure to 0.35 MBq", "result": "0.06±0.02"}, {"measurement": "surviving fraction", "setting": "[6]; 72 hour exposure to 0.29 MBq", "result": "0.010±0.004"}, {"measurement": "survivors", "setting": "[6]; at higher concentrations", "result": "no survivors"}, {"measurement": "surviving fraction", "setting": "[7]; 24 hours", "result": "0.68±0.069"}, {"measurement": "surviving fraction", "setting": "[7]; 48 hours", "result": "0.08±0.04"}, {"measurement": "colonies", "setting": "[7]; 72 hour exposure", "result": "no colonies"}, {"measurement": "cytotoxicity, cell survival", "setting": "[8]", "result": "cytotoxic to neuroblastoma and glioblastoma cells"}, {"measurement": "adverse reactions in the blood (hematocrit, hemoglobin)", "setting": "[9]", "result": "adverse reactions in the blood were not observed"}]}, {"smiles": "COC(=O)Nc1nc2ccc(C(=O)c3ccccc3)cc2[nH]1", "note": "[Compound 1, methyl N-(6-benzoyl-1H-benzimidazol-2-yl)carbamate]", "values": [{"measurement": "GI50, concentration to inhibit growth of cancer cells by 50%", "setting": "[10]", "result": "nanomolar levels"}]}]}
